According to patent US4772586A, “Novel derivatives of arginine vasopressin antagonists” (Medical College of Ohio, priority 1986, dated 1988):
*1 amine or outer side, *2 acyl side, *3 side chain or, on linkers, in order; H or OH if unused. Where a SMILES comes first, the peptide text is derived from it. Bridges are numbered along the chain shown (N, C = ends). [ ]: non-standard residue; d: D form. The star is where a group is joined. Ethylenediamine = C(CN[*:2])N[*:1]; X1 = O=C(CC1(S[*:2])CCCCC1)[*:1]; Orn = NCCC[C@H](N)C(=O)O; βAla = NCCC(=O)O; NHBu = CCCCN*

Columns and labels:
[1] = system: antidiuretic response to arginine vasopressin; test: Antagonism of the antidiuretic response to arginine vasopressin (Anti-ADH); assay type: in vivo, rats; conditions: for Anti-ADH Potency pA2: estimated in vivo pA2
Protocol: Activity as antidiuretic agonists was determined by intravenous injection of the compounds being evaluated in ethanol-anesthesized water-loaded rats in accordance with Sawyer, Endocrinology, vol. 63 (1958) at 694. Antagonism of the antidiuretic response to subsequent injections of arginine vasopressin was tested by the method of Sawyer et al., Science, vol. 212 (1981) at 49.
(§1) Antagonistic potencies were determined and expressed as "effective doses" and pA2 values. The "effective dose" is defined as the dose (in nanomoles per kilogram) that reduces the response seen from 2x units of agonist injected 20 min after the dose of antagonist to the response with 1x units of agonist. Estimated in vivo "pA2 " values represent the negative logarithms of the effective doses, divided by the estimated volume of distribution (67 ml/kg).

[2] = system: vasopressor response to arginine vasopressin; test: Antagonism to the vasopressor response (Anti-VP); assay type: in vivo; conditions: for Anti-VP Potency pA2 / Anti-VP pA2: estimated in vivo pA2; for Anti-VP pA2: Table 1
Protocol: Antagonism to the vasopressor response was estimated in accordance with Dyckes et al., J. Med. Chem., vol. 17 (1974) at 969. The values are expressed as pA2 values, defined as in Schild et al., Br. J. Pharmacol., vol. 2 (1947) at 189.
as §1

| SMILES | Anti-ADH Potency pA2 ([1]; Table 2) | Anti-VP Potency pA2 ([2]; Table 2) | other results |
| --- | --- | --- | --- |
| CCOc1ccc(C[C@H]2NC(=O)CC3(CCCCC3)SSC[C@@H](C(=O)N3CCC[C@H]3C(=O)N[C@@H](CCCNC(=N)N)C(=O)NCCC(=O)NC)NC(=O)[C@H](CC(N)=O)NC(=O)[C@H](C(C)C)NC(=O)[C@H](Cc3ccccc3)NC2=O)cc1 [1-(beta-mercapto-beta,beta-cyclopentamethyleneproprionic acid), 2-D-(O-ethyl)tyrosine, 4-valine, 9-beta-alanine-N-methylamide]-arginine vasopressin] ([dY](Et)FVNCPR[βAla]-NHMe; linker N-5 via X1) | – | – | Anti-ADH Potency pA2 ([1]; Table 4): 7.61 ± 0.02; Anti-VP Potency pA2 ([2]; Table 4, ^+ = mixed): 7.77 ± 0.05 |
| CC[C@H](C)[C@@H]1NC(=O)[C@H](Cc2ccccc2)NC(=O)[C@@H](Cc2ccccc2)NC(=O)CC2(CCCCC2)SSC[C@@H](C(=O)N2CCC[C@H]2C(=O)N[C@@H](CCCNC(=N)N)C(=O)N[C@@H](C)C(N)=O)NC(=O)[C@H](CC(N)=O)NC1=O [Ala(NH2), [1-(beta-mercapto-beta,beta-cyclopentamethylenepropionic acid), 2-D-phenylalanine, 4-isoleucine, 9-alaninamide]-arginine vasopressin] ([dF]FINCPRA-NH2; linker N-5 via X1) | 8.38 ± 0.13 | 7.67 ± 0.04 | – |
| CC[C@H](C)[C@@H]1NC(=O)[C@H](Cc2ccccc2)NC(=O)[C@@H](Cc2ccccc2)NC(=O)CC2(CCCCC2)SSC[C@@H](C(=O)N2CCC[C@H]2C(=O)N[C@@H](CCCNC(=N)N)C(=O)N[C@@H](CCCNC(=N)N)C(N)=O)NC(=O)[C@H](CC(N)=O)NC1=O [Arg(NH2), [1-(beta-mercapto-beta,beta-cyclopentamethylenepropionic acid), 2-D-phenylalanine, 4-isoleucine, 9-argininamide]-arginine vasopressin] ([dF]FINCPRR-NH2; linker N-5 via X1) | 8.05 ± 0.11 | 8.11 ± 0.07 | – |
| CC[C@H](C)[C@@H]1NC(=O)[C@H](Cc2ccccc2)NC(=O)[C@@H](Cc2ccccc2)NC(=O)CC2(CCCCC2)SSC[C@@H](C(=O)N2CCC[C@H]2C(=O)N[C@@H](CCCNC(=N)N)C(=O)N[C@H](C)C(N)=O)NC(=O)[C@H](CC(N)=O)NC1=O [D-Ala(NH2), [1-(beta-mercapto-beta,beta-cyclopentamethylenepropionic acid), 2-D-phenylalanine, 4-isoleucine, 9-D-alaninamide]-arginine vasopressin] ([dF]FINCPR[dA]-NH2; linker N-5 via X1) | 7.38 ± 0.08 | 7.55 ± 0.05 | – |
| COc1ccc(C[C@@H]2NC(=O)CC3(CCCCC3)SSC[C@@H](C(=O)N3CCC[C@H]3C(=O)N[C@@H](CCCNC(=N)N)C(=O)N[C@@H](C)C(N)=O)NC(=O)[C@H](CC(N)=O)NC(=O)[C@H](CCC(N)=O)NC(=O)[C@H](Cc3ccccc3)NC2=O)cc1 [Example 9(b), [1-(beta-mercapto-beta,beta-cyclopentamethylenepropionic acid), 2-(O-methyl)tyrosine, 9-alaninamide]-argine vasopressin] (Y(Me)FQNCPRA-NH2; linker N-5 via X1) | – | – | Anti-ADH: pA2 ([1]; text after Table 2): about 6.0; Anti-VP: pA2 ([2]; text after Table 2): 8.74±0.08 |
| CC[C@H](C)[C@H](NC(=O)[C@H](CCCNC(=N)N)NC(=O)[C@@H]1CCCN1C(=O)[C@@H]1CSSC2(CCCCC2)CC(=O)N[C@H](Cc2ccccc2)C(=O)N[C@@H](Cc2ccccc2)C(=O)N[C@@H]([C@@H](C)CC)C(=O)N[C@@H](CC(N)=O)C(=O)N1)C(N)=O [Ile(NH2), [1-(beta-mercapto-beta,beta-cyclopentamethylenepropionic acid), 2-D-phenylalanine, 4-isoleucine, 9-isoleucinamide]-arginine vasopressin] ([dF]FINCPRI-NH2; linker N-5 via X1) | 7.58 ± 0.11 | 7.04 ± 0.05 | – |
| CC[C@H](C)[C@@H]1NC(=O)[C@H](Cc2ccccc2)NC(=O)[C@@H](Cc2ccccc2)NC(=O)CC2(CCCCC2)SSC[C@@H](C(=O)N2CCC[C@H]2C(=O)N[C@@H](CCCNC(=N)N)C(=O)N[C@@H](CCCN)C(N)=O)NC(=O)[C@H](CC(N)=O)NC1=O [Orn(NH2), [1-(beta-mercapto-beta,beta-cyclopentamethylenepropionic acid), 2-D-phenylalanine, 4-isoleucine, 9-ornithinamide]-arginine vasopressin] ([dF]FINCPR[Orn]-NH2; linker N-5 via X1) | 8.18 ± 0.09 | 7.80 ± 0.05 | – |
| CC[C@H](C)[C@@H]1NC(=O)[C@H](Cc2ccccc2)NC(=O)[C@@H](Cc2ccccc2)NC(=O)CC2(CCCCC2)SSC[C@@H](C(=O)N2CCC[C@H]2C(=O)N[C@@H](CCCNC(=N)N)C(=O)N[C@@H](Cc2ccccc2)C(N)=O)NC(=O)[C@H](CC(N)=O)NC1=O [Phe(NH2), [1-(beta-mercapto-beta,beta-cyclopentamethylenepropionic acid), 2-D-phenylalanine, 4-isoleucine, 9-phenylalaninamide]-arginine vasopressin] ([dF]FINCPRF-NH2; linker N-5 via X1) | 7.69 ± 0.09 | 7.28 ± 0.11 | – |
| CC[C@H](C)[C@@H]1NC(=O)[C@H](Cc2ccccc2)NC(=O)[C@@H](Cc2ccccc2)NC(=O)CC2(CCCCC2)SSC[C@@H](C(=O)N2CCC[C@H]2C(=O)N[C@@H](CCCNC(=N)N)C(=O)N2CCC[C@H]2C(N)=O)NC(=O)[C@H](CC(N)=O)NC1=O [Pro(NH2), [1-(beta-mercapto-beta,beta-cyclopentamethylenepropionic acid), 2-D-phenylalanine, 4-isoleucine, 9-prolinamide]-arginine vasopressin] ([dF]FINCPRP-NH2; linker N-5 via X1) | 7.19 ± 0.04 | 7.12 ± 0.11 | – |
| COc1ccc(C[C@@H]2NC(=O)CC3(CCCCC3)SSC[C@@H](C(=O)N3CCC[C@H]3C(=O)N[C@@H](CCCNC(=N)N)C(=O)NCC(=O)NCCN)NC(=O)[C@H](CC(N)=O)NC(=O)[C@H](CCC(N)=O)NC(=O)[C@H](Cc3ccccc3)NC2=O)cc1 [[1-(beta-mercapto-beta,beta-cyclopentamethylenepropionic acid), 2-(O-methyl)tyrosine, 9-glycine-N-(beta-amino)ethylamide]-arginine vasopressin] (Y(Me)FQNCPRG-Ethylenediamine; linker N-5 via X1) | – | – | Anti-VP Potency pA2 ([2]; Table 4, ^+ = mixed): 8.39 ± 0.05 |
| CCCCNC(=O)[C@H](CCCNC(=N)N)NC(=O)[C@@H]1CCCN1C(=O)[C@@H]1CSSC2(CCCCC2)CC(=O)N[C@H](Cc2ccccc2)C(=O)N[C@@H](Cc2ccccc2)C(=O)N[C@@H]([C@@H](C)CC)C(=O)N[C@@H](CC(N)=O)C(=O)N1 [[1-(beta-mercapto-beta,beta-cyclopentamethylenepropionic acid), 2-D-phenylalanine, 4-isoleucine, 8-arginine-N-(n-butyl)amide, 9-desglycinamide)] vasopressin] ([dF]FINCPR-NHBu; linker N-5 via X1) | – | – | Anti-VP Potency pA2 ([2]; Table 4, ^+ = mixed): 7.13 ± 0.08 |
| N=C(N)NCCC[C@H](NC(=O)[C@@H]1CCCN1C(=O)[C@@H]1CSSC2(CCCCC2)CC(=O)N[C@@H](Cc2ccc(O)cc2)C(=O)N[C@@H](Cc2ccccc2)C(=O)N[C@@H](CCC(N)=O)C(=O)N[C@@H](CC(N)=O)C(=O)N1)C(=O)NCC(N)=O [d(CH2)5 AVP, [1-(beta-mercapto-beta,beta-cyclopentamethylenepropionic acid)]-arginine vasopressin, reference compound] (YFQNCPRG-NH2; linker N-5 via X1) | – | – | Anti-VP pA2 [2]: 8.16 ± 0.09 |
| CCCCNC(=O)CNC(=O)[C@H](CCCNC(=N)N)NC(=O)[C@@H]1CCCN1C(=O)[C@@H]1CSSC2(CCCCC2)CC(=O)N[C@@H](Cc2ccc(OC)cc2)C(=O)N[C@@H](Cc2ccccc2)C(=O)N[C@@H](CCC(N)=O)C(=O)N[C@@H](CC(N)=O)C(=O)N1 [d(CH2)5 [Tyr(Me)^2, Gly(NHBu-n)^9]AVP, [1-(beta-mercapto-beta,beta-cyclopentamethylenepropionic acid), 2-(O-methyl)tyrosine, 9-glycine-N-(n-butyl)amide]-arginine vasopressin] (Y(Me)FQNCPRG-NHBu; linker N-5 via X1) | – | – | Anti-VP Potency pA2 ([2]; Table 4, ^+ = mixed): 8.44 ± 0.07 |
| N=C(N)NCCC[C@H](NC(=O)[C@@H]1CCCN1C(=O)[C@@H]1CSSC2(CCCCC2)CC(=O)N[C@@H](Cc2ccc(O)cc2)C(=O)N[C@@H](Cc2ccccc2)C(=O)N[C@@H](CCC(N)=O)C(=O)N[C@@H](CC(N)=O)C(=O)N1)C(=O)O [desGly(NH2)^9 d(CH2)5 AVP, [1-(beta-mercapto-beta,beta-cyclopentamethylenepropionic acid), 9-desglycinamide]-arginine vasopressin] (YFQNCPR-OH; linker N-5 via X1) | – | – | Anti-VP pA2 [2]: 7.88 ± 0.06 |
| N=C(N)NCCC[C@H](NC(=O)[C@@H]1CCCN1C(=O)[C@@H]1CSSC2(CCCCC2)CC(=O)N[C@@H](Cc2ccc(O)cc2)C(=O)N[C@@H](Cc2ccccc2)C(=O)N[C@@H](CCC(N)=O)C(=O)N[C@@H](CC(N)=O)C(=O)N1)C(N)=O [desGly^9 d(CH2)5 AVP, [1-(beta-mercapto-beta,beta-cyclopentamethylenepropionic acid), 9-desglycine]-arginine vasopressin] (YFQNCPR-NH2; linker N-5 via X1) | – | – | Anti-VP pA2 [2]: 8.40 ± 0.06 |
